According to US10479792B2, “Compounds” (GlaxoSmithKline Intellectual Property Development Limited, priority 2015, dated 2019):

Legend:
Type in all cases: cell-based
[1] = system: Leishmania donovani; assay: Intramacrophage Leishmania donovani assay (Assay 1), average number of amastigotes per cell (potency readout); details: THP-1, 96 h, amastigotes in PMA-differentiated THP-1 macrophages, 96 h incubation, read-out: pEC50 value against Leishmania donovani (converted)
Description: Assay 1. Intramacrophage Leishmania donovani Assay
The intramacrophage Leishmania assay was performed using a modified version of the method described in De Rycker et al. (Antimicrob Agents Chemother. 2013 July; 57(7):2913-22. Comparison of a high-throughput high-content intracellular Leishmania donovani assay with an axenic amastigote assay. De Rycker M, Hallyburton I, Thomas J, Campbell L, Wyllie S, Joshi D, Cameron S, Gilbert I H, Wyatt P G, Frearson J A, Fairlamb A H, Gray D W.). Procedure: 350 nl of compound was pre-dispensed into 384 well sterile intermediary plates. For single point screening, amphotericin B was added to all wells of column 24 as a positive control (final concentration 2 μM) and DMSO to column 23. For potency determinations, ten-point, one in three dilution curves were created with the highest concentration being 50 μM and on each plate a control curve of amphotericin B was included. Controls were as follows: columns 11 and 12: DMSO, columns 23 and 24: amphotericin B (final concentration 2 μM). To the intermediary plates, 35 μl of THP-1 media was added and plates were shaken for >5 min to ensure complete mixing. THP-1 cells (8,000 per well, 50 μl) were plated into black clear-bottom 384 well plates (Corning) in presence of 20 nM PMA. After 20 min at RT, the plates were incubated at 37° C. under 5% CO2 in a humidified incubator for 75 h. The cells were then washed with […] sterile phosphate buffered saline (PBS) supplemented with 1 mM CaCl2, 0.5 mM MgCl2, 0.1% (w/v) bovine serum albumin (PBS-A) and amastigotes were added to all wells at a multiplicity of infection of 5 (40,000 amastigotes per well). After 40 min at RT, plates were returned to the incubator. Amastigotes were incubated in the presence of THP-1 macrophages for 16 h. Any remaining extracellular amastigotes were subsequently removed with an overflow wash of 1 mL PBS-A per well (wash buffer is being aspirated from the top of the well as it is being dispensed) followed by addition of 25 μl of the compound pre-dilutions using a Fluidx Ipette-pro pipetting station. The final dilution of each compound was 200-fold. Plates were incubated for 96 h and then washed (250 μl PBS-A) and fixed (4% (v/v) formaldehyde-PBS, 30 min, RT). After fixation, the wells were washed with 250 μl PBS, stained (10 μg/mL DAPI, 0.4 μg mL-1 HCS Cellmask Deep Red in PBS+0.1% (v/v) Triton X-100, 30 min, RT) and washed with 250 μl PBS. Finally, PBS+0.05% (v/v) thimerosal was added to the wells, the plates were sealed and imaged on a high-content microscope (GE IN Cell 2000) using a 10× objective. Image analysis was carried out with GE IN Cell Analyzer 1000 Workstation using the “Multi Target Analysis” module. Settings for segmentation were as follows: nuclei: minimum area: 142.384 μm2, sensitivity: 81, method: top-hat; cells: characteristic area: 2500 μm2, sensitivity: 60, method: multiscale top-hat; organelles (amastigotes): granule size 1-3, 3 scales, sensitivity: 90, detection in entire cell. For each well, i) THP-1 cell count (cytotoxicity readout) and ii) average number of amastigotes per cell (potency readout) were calculated, both in terms of pEC50 values.

[2] = system: THP-1 cells; assay: Leishmania donovani intracellular assay (Assay 5), THP-1 cytotoxicity; details: human, 96 h incubation, read-out: cytotoxicity against THP-1 cells, pEC50 (converted)
Description: (§1) Assay 5. Leishmania donovani Intracellular Assay
(§2) Compounds were dispensed into black 384-well assay plates (Greiner) by acoustic dispensing (LabCyte ECHO). For potency determinations, eleven-point, one in three dilution curves were generated, with a top concentration of 50 μM. THP-1 human monocytes cells were dispensed in T225 tissue culture flasks and differentiated using 30 nM of PMA, after 24 hours they were infected overnight using Leishmania donovani expressing Green Fluorescent Protein (eGFP) amastigotes in the same T225 tissue culture flasks at a multiplicity of infection of 10. Next, any remaining free amastigotes were washed away with PBS and the infected THP-1 cells were harvested by trypsinisation. The infected cells were then plated into 384-well plates containing the compounds to be tested, at 3000 cells per well in RPMI media with 2% FBS and 25 mM Sodium bicarbonate. After 96 h incubation at 37° C. in presence of 5% CO2, the plates were fixed with 4% formaldehyde for 30 minutes, washed with PBS and stained with 0.1 mg/mL of DAPI for 30 minutes and washed again with PBS. The plates were imaged on a Perkin Elmer Opera high-content imaging system using a 20× air objective with two expositions, one for DAPI stain and other for eGFP. Images were analysed using the Acapella building blocks system (Perkin Elmer). The image analysis algorithm first identified the THP-1 nuclei followed by demarcation of the cytoplasm and identification of intracellular amastigotes. This algorithm reported mean number of parasites per THP-1 cell, the percentage of infected THP-1 cells and the total number of THP-1 cells.

[3] = system: Leishmania donovani; assay: Leishmania donovani intracellular assay (Assay 5); details: THP-1, 96 h, eGFP amastigotes in THP-1 cells, 96 h incubation, read-out: pEC50 value against Leishmania donovani (converted)
Description: as §1, §2

Compound	EC50 [1]	EC50 at 96 h [2]	EC50 [3]
O=C(Nc1cccc(-c2ccn3c(-c4ccccc4)cnc3n2)c1)N1CCCC1 [Example 2, N-(3-(3-phenylimidazo[1,2-a]pyrimidin-7-yl)phenyl)pyrrolidine-1-carboxamide]	0.251 to 10 µM	12.6 to 50.1 µM	0.126 to 10 µM
O=C(Nc1ccc(F)c(-c2ccn3c(N4CCOCC4)cnc3n2)c1)N1CCC(F)(F)C1 [Example 25, 3,3-difluoro-N-(4-fluoro-3-(3-morpholinoimidazo[1,2-a]pyrimidin-7-yl)phenyl)pyrrolidine-1-carboxamide]	12.6 to 20 µM		0.126 to 10 µM
CC1CN(c2cnc3nc(-c4cc(NC(=O)N5CCCC5)ccc4F)ccn23)CCO1 (stereo not drawn) [Example 29, N-(4-fluoro-3-(3-(2-methylmorpholino)imidazo[1,2-a]pyrimidin-7-yl)phenyl)pyrrolidine-1-carboxamide]	0.251 to 10 µM		0.126 to 10 µM
O=C(Nc1ccc(F)c(-c2cc(C(=O)N3CCCC3)n3ccnc3n2)c1)N1CCCC1 [Example 50, N-(4-fluoro-3-(5-(pyrrolidine-1-carbonyl)imidazo[1,2-a]pyrimidin-7-yl)phenyl)pyrrolidine-1-carboxamide]	> 50.1 µM		12.6 to 39.8 µM
O=C(Nc1ccc(F)c(-c2ccn3c(N4CCOCC4)cnc3n2)c1)N1CC(F)(F)C1 [Example 24, 3,3-difluoro-N-(4-fluoro-3-(3-morpholinoimidazo[1,2-a]pyrimidin-7-yl)phenyl)azetidine-1-carboxamide]	0.251 to 10 µM		0.126 to 10 µM
C[C@@H]1CN(c2cnc3nc(-c4cc(NC(=O)N5CCCC5)ccc4F)ccn23)C[C@H](C)O1 [Example 30, N-(3-(3-((2S,6R)-2,6-dimethylmorpholino)imidazo[1,2-a]pyrimidin-7-yl)-4-fluorophenyl)pyrrolidine-1-carboxamide]	0.251 to 10 µM		0.126 to 10 µM
O=C(Nc1ccc(F)c(-c2ccn3c(N4CCNCC4)cnc3n2)c1)N1CCCC1 [Example 32, N-(4-fluoro-3-(3-(piperazin-1-yl)imidazo[1,2-a]pyrimidin-7-yl)phenyl)pyrrolidine-1-carboxamide]	> 50.1 µM		12.6 to 39.8 µM
CC1CN(C(=O)Nc2ccc(F)c(-c3ccn4c(N5CCOCC5)cnc4n3)c2)C1 [Example 49, N-(4-fluoro-3-(3-morpholinoimidazo[1,2-a]pyrimidin-7-yl)phenyl)-3-methylazetidine-1-carboxamide]	12.6 to 20 µM		0.126 to 10 µM
O=C(Nc1ccc(F)c(-c2ccn3c(-c4ccc(CN5CCOCC5)cc4)cnc3n2)c1)N1CCCC1 [Example 21, N-(4-fluoro-3-(3-(4-(morpholinomethyl)phenyl)imidazo[1,2-a]pyrimidin-7-yl)phenyl)pyrrolidine-1-carboxamide]	0.251 to 10 µM		0.126 to 10 µM
O=C(Nc1cccc(-c2ccn3c(N4CCOCC4)cnc3n2)c1)N1CCCC1 [Example 1, N-(3-(3-morpholinoimidazo[1,2-a]pyrimidin-7-yl)phenyl)pyrrolidine-1-carboxamide]	0.251 to 10 µM		0.126 to 10 µM
CC(C)(C)OC(=O)N1CCN(c2cnc3nc(-c4cc(NC(=O)N5CCCC5)ccc4F)ccn23)CC1 [Example 35, tert-butyl 4-(7-(2-fluoro-5-(pyrrolidine-1-carboxamido)phenyl)imidazo[1,2-a]pyrimidin-3-yl)piperazine-1-carboxylate]	0.251 to 10 µM		0.126 to 10 µM
CN1CCN(c2cnc3nc(-c4cc(NC(=O)N5CCCC5)ccc4F)ccn23)CC1 [Example 36, N-(4-fluoro-3-(3-(4-methylpiperazin-1-yl)imidazo[1,2-a]pyrimidin-7-yl)phenyl)pyrrolidine-1-carboxamide]	12.6 to 20 µM		0.126 to 10 µM
COC1CCN(c2cnc3nc(-c4cc(NC(=O)N5CCCC5)ccc4F)ccn23)CC1 [Example 47, N-(4-fluoro-3-(3-(4-methoxypiperidin-1-yl)imidazo[1,2-a]pyrimidin-7-yl)phenyl)pyrrolidine-1-carboxamide]	0.251 to 10 µM		0.126 to 10 µM
O=C(Nc1ccc(F)c(-c2ccn3c(N4CCCOCC4)cnc3n2)c1)N1CCCC1 [Example 22, N-(3-(3-(1,4-oxazepan-4-yl)imidazo[1,2-a]pyrimidin-7-yl)-4-fluorophenyl)pyrrolidine-1-carboxamide]	0.251 to 10 µM		0.126 to 10 µM
O=C(Nc1ccc(F)c(-c2ccn3c(CN4CCOCC4)cnc3n2)c1)N1CCCC1 [Example 20, N-(4-fluoro-3-(3-(morpholinomethyl)imidazo[1,2-a]pyrimidin-7-yl)phenyl)pyrrolidine-1-carboxamide]	12.6 to 20 µM		0.126 to 10 µM
Cc1cn2c(N3CCOCC3)cnc2nc1-c1cccc(NC(=O)N2CCCC2)c1 [Example 14, N-(3-(6-methyl-3-morpholinoimidazo[1,2-a]pyrimidin-7-yl)phenyl)pyrrolidine-1-carboxamide]	> 50.1 µM		12.6 to 39.8 µM
C[C@H]1CN(c2cnc3nc(-c4cc(NC(=O)N5CCCC5)ccc4F)ccn23)CCO1 [Example 40, (S)—N-(4-fluoro-3-(3-(2-methylmorpholino)imidazo[1,2-a]pyrimidin-7-yl)phenyl)pyrrolidine-1-carboxamide]	0.251 to 10 µM		0.126 to 10 µM
C[C@@H]1CCCN1C(=O)Nc1ccc(F)c(-c2ccn3c(N4CCOCC4)cnc3n2)c1 [Example 33, N-(4-fluoro-3-(3-morpholinoimidazo[1,2-a]pyrimidin-7-yl)phenyl)-2-methylpyrrolidine-1-carboxamide]	0.251 to 10 µM		0.126 to 10 µM
O=C(Nc1ccc(F)c(-c2ccn3c(-c4cnccn4)cnc3n2)c1)N1CCCC1 [Example 27, N-(4-fluoro-3-(3-(pyrazin-2-yl)imidazo[1,2-a]pyrimidin-7-yl)phenyl)pyrrolidine-1-carboxamide]	0.251 to 10 µM		0.126 to 10 µM
CC1(C)COCCN1c1cnc2nc(-c3cc(NC(=O)N4CCCC4)ccc3F)ccn12 [Example 42, N-(3-(3-(3,3-dimethylmorpholino)imidazo[1,2-a]pyrimidin-7-yl)-4-fluorophenyl)pyrrolidine-1-carboxamide]	0.251 to 10 µM		0.126 to 10 µM
Cc1cn2c(N3CCOCC3)cnc2nc1-c1cc(NC(=O)N2CCCC2)ccc1F [Example 15, N-(4-fluoro-3-(6-methyl-3-morpholinoimidazo[1,2-a]pyrimidin-7-yl)phenyl)pyrrolidine-1-carboxamide]	12.6 to 20 µM		12.6 to 39.8 µM
CC(=O)N1CCN(c2cnc3nc(-c4cc(NC(=O)N5CCCC5)ccc4F)ccn23)CC1 [Example 48, N-(3-(3-(4-acetylpiperazin-1-yl)imidazo[1,2-a]pyrimidin-7-yl)-4-fluorophenyl)pyrrolidine-1-carboxamide]	> 50.1 µM		0.126 to 10 µM
